Source: US10766893B2 (priority 2017, dated 2020)

Key:
Experiment in all cases: biochemical
Assay type in all cases: biochemical
Conditions in all cases: 15 nM tritium labelled cAMP, 1 hr at room temperature
PDE1C = PDE1C (Homo sapiens (Human), UniProt Q14123)
From the text: (§1) Table 1 lists the IC50 value for inhibition of PDE1 by the compounds of the invention. […] PDE1 assays are described in the Experimental Section.

PDE1B = PDE1B (Homo sapiens (Human), UniProt Q01064)
From the text: as §1

PDE1A = PDE1A (Homo sapiens (Human), UniProt P54750)
Chain of PDE1A (P54750 whole entry): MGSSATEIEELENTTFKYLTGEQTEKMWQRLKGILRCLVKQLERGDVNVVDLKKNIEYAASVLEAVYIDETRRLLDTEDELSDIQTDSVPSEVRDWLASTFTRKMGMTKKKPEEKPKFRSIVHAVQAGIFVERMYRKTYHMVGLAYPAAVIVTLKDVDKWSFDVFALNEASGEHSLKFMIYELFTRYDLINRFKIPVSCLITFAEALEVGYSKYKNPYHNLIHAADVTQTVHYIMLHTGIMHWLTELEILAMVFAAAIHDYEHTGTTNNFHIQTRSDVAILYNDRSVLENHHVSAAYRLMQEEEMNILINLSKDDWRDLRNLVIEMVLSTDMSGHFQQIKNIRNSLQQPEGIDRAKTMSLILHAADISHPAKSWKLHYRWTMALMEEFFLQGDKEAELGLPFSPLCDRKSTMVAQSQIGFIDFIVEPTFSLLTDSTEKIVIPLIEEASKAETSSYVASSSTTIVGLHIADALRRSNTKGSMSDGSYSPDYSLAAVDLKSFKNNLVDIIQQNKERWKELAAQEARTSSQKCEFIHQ
From the text: as §1

Chain of PDE1C (Q14123 whole entry): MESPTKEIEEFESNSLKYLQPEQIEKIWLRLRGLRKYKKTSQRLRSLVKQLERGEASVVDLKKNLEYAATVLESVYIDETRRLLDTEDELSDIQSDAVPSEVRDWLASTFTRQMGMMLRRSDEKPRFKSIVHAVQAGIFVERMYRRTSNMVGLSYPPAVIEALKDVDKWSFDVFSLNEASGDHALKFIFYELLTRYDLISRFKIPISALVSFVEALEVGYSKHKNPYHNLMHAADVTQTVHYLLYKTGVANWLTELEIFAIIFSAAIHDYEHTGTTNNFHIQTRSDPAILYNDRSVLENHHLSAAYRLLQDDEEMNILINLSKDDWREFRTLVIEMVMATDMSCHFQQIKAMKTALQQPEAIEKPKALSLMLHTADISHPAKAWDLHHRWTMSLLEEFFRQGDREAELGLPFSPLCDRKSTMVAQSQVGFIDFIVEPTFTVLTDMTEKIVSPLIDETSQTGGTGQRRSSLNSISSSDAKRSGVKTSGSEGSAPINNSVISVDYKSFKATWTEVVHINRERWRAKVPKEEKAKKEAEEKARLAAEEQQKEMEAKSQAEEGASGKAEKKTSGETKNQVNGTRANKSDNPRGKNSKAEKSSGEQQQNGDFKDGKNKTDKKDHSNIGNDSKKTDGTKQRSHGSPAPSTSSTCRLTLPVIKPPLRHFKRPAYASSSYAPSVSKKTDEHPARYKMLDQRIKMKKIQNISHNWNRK
Chain of PDE1B (Q01064 whole entry): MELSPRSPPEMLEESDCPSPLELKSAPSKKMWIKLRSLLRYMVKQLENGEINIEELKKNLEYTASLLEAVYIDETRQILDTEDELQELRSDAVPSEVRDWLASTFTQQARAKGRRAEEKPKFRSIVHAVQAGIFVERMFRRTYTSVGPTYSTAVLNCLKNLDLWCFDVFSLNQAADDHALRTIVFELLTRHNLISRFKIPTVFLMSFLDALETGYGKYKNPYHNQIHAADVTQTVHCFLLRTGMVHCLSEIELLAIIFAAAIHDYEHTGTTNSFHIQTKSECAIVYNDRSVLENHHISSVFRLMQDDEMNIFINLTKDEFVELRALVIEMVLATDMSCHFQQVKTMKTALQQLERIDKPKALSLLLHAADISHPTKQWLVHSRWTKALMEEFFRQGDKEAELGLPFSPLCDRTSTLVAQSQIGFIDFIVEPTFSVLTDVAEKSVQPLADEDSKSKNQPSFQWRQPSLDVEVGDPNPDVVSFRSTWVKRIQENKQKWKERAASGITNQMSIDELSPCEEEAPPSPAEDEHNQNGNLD

Row | SMILES | IC50 (PDE1C) | IC50 (PDE1B) | IC50 (PDE1A)
1 | Cc1nc2cccc(-c3cc(NCc4cnn(C)c4)c4c(n3)c(C)nn4C(C)C)c2o1 [Example 36b, 1-isopropyl-3-methyl-5-(2-methyl-1,3-benzoxazol-7-yl)-N-[(1-methylpyrazol-4-yl)methyl]pyrazolo[4,3-b]pyridin-7-amine] | 28 nM | 2.4 nM | 14 nM
2 | CCOc1nnccc1-c1cc(NCc2ncc(F)cn2)c2c(n1)c(C)nn2C(C)C [Example 10b, 5-(3-ethoxypyridazin-4-yl)-N-[(5-fluoropyrimidin-2-yl)methyl]-1-isopropyl-3-methyl-pyrazolo[4,3-b]pyridin-7-amine] | 67 nM | 2.4 nM | 21 nM
3 | CCOc1cnccc1-c1cc(NCc2cccc(OC)n2)c2c(n1)c(C)nn2C(C)C [Example 25b, 5-(3-ethoxy-4-pyridyl)-1-isopropyl-N-[(6-methoxy-2-pyridyl)methyl]-3-methyl-pyrazolo[4,3-b]pyridin-7-amine] | 53 nM | 1.6 nM | 17 nM
4 | CCOc1cnccc1-c1cc(NCc2cnn(C)c2)c2c(n1)c(C)nn2C(C)CC (single isomer, unassigned) [Example 32b, 5-(3-ethoxy-4-pyridyl)-3-methyl-N-[(1-methylpyrazol-4-yl)methyl]-1-[1-methylpropyl]pyrazolo[4,3-b]pyridin-7-amine] | 180 nM | 7.8 nM | 57 nM
5 | CCOc1nnccc1-c1cc(NCc2ccn(C)n2)c2c(n1)c(C)nn2C(C)C [Example 9b, 5-(3-ethoxypyridazin-4-yl)-1-isopropyl-3-methyl-N-[(1-methylpyrazol-3-yl)methyl]pyrazolo[4,3-b]pyridin-7-amine] | 22 nM | 0.6 nM | 5.2 nM
6 | CCOc1ncccc1-c1cc(NCc2nccc3nncn23)c2c(n1)c(C)nn2C(C)C [Example 15a, N-([1,2,4]triazolo[4,3-c]pyrimidin-5-ylmethyl)-5-(2-ethoxypyridin-3-yl)-1-isopropyl-3-methyl-1H-pyrazolo[4,3-b]pyridin-7-amine] | 43 nM | 4.8 nM | 30 nM
7 | COc1cnccc1-c1cc(NCc2cnn(C)c2)c2c(n1)c(C)nn2C(C)C [Example 29b, 1-isopropyl-5-(3-methoxy-4-pyridyl)-3-methyl-N-[(1-methylpyrazol-4-yl)methyl]pyrazolo[4,3-b]pyridin-7-amine] | 44 nM | 4.9 nM | 32 nM
8 | CCOc1ncccc1-c1cc(NCc2cccn3nccc23)c2c(n1)c(C)nn2C(C)C [Example 5a, 5-(2-ethoxy-3-pyridyl)-1-isopropyl-3-methyl-N-(pyrazolo[1,5-a]pyridin-4-ylmethyl)pyrazolo[4,3-b]pyridin-7-amine] | 95 nM | 7.1 nM | 53 nM
9 | CCOc1nnccc1-c1cc(NCc2ncn(C)n2)c2c(n1)c(C)nn2C(C)C [Example 18b, 5-(3-ethoxypyridazin-4-yl)-1-isopropyl-3-methyl-N-[(1-methyl-1,2,4-triazol-3-yl)methyl]pyrazolo[4,3-b]pyridin-7-amine] | 17 nM | 0.59 nM | 3.6 nM
10 | CCOc1nnccc1-c1cc(NCc2nnc(C)o2)c2c(n1)c(C)nn2C(C)C [Example 8b, 5-(3-ethoxypyridazin-4-yl)-1-isopropyl-3-methyl-N-[(5-methyl-1,3,4-oxadiazol-2-yl)methyl]pyrazolo[4,3-b]pyridin-7-amine] | 320 nM | 14 nM | 97 nM
11 | Cc1nn(C(C)C)c2c(NCc3cnn(C)c3)cc(-c3cccc4cn[nH]c34)nc12 [Example 39b, 5-(1H-indazol-7-yl)-1-isopropyl-3-methyl-N-[(1-methylpyrazol-4-yl)methyl]pyrazolo[4,3-b]pyridin-7-amine] | 300 nM | 24 nM | 140 nM
12 | CCOc1ncccc1-c1cc(NCc2cccn3cncc23)c2c(n1)c(C)nn2C(C)C [Example 8a, 5-(2-ethoxy-3-pyridyl)-N-(imidazo[1,5-a]pyridin-8-ylmethyl)-1-isopropyl-3-methyl-pyrazolo[4,3-b]pyridin-7-amine] | 9.1 nM | 0.18 nM | 3.2 nM
13 | CCOc1cnccc1-c1cc(NCc2cccnc2OC)c2c(n1)c(C)nn2C(C)C [Example 30b, 5-(3-ethoxy-4-pyridyl)-1-isopropyl-N-[(2-methoxy-3-pyridyl)methyl]-3-methyl-pyrazolo[4,3-b]pyridin-7-amine] | 65 nM | 2.7 nM | 27 nM
14 | CCOc1cnccc1-c1cc(NCc2cc(C)[nH]n2)c2c(n1)c(C)nn2C(C)C [Example 23b, 5-(3-ethoxy-4-pyridyl)-1-isopropyl-3-methyl-N-[(5-methyl-1H-pyrazol-3-yl)methyl]pyrazolo[4,3-b]pyridin-7-amine] | 12 nM | 0.55 nM | 5.5 nM
15 | CCOc1cnccc1-c1cc(NCc2cccnc2F)c2c(n1)c(C)nn2C(C)C [Example 17b, 5-(3-ethoxy-4-pyridyl)-N-[(2-fluoro-3-pyridyl)methyl]-1-isopropyl-3-methyl-pyrazolo[4,3-b]pyridin-7-amine] | 37 nM | 2.4 nM | 20 nM
16 | CCOc1ncccc1-c1cc(NCc2cccn3ccnc23)c2c(n1)c(C)nn2C(C)C [Example 4a, 5-(2-ethoxy-3-pyridyl)-N-(imidazo[1,2-a]pyridin-8-ylmethyl)-1-isopropyl-3-methyl-pyrazolo[4,3-b]pyridin-7-amine] | 22 nM | 0.48 nM | 6.6 nM
17 | CCOc1nnccc1-c1cc(NCc2cnn(C)c2)c2c(n1)c(C)nn2C(C)CC (single isomer, unassigned) [Example 6b, 5-(3-ethoxypyridazin-4-yl)-3-methyl-N-[(1-methylpyrazol-4-yl)methyl]-1-[1-methylpropyl]pyrazolo[4,3-b]pyridin-7-amine] | 11 nM | 0.36 nM | 1.9 nM
18 | CCOc1ncccc1-c1cc(NCc2nccc3nccn23)c2c(n1)c(C)nn2C(C)C [Example 16a, 5-(2-ethoxypyridin-3-yl)-N-(imidazo[1,2-c]pyrimidin-5-ylmethyl)-1-isopropyl-3-methyl-1H-pyrazolo[4,3-b]pyridin-7-amine] | 44 nM | 4 nM | 35 nM
19 | CCOc1ncccc1-c1cc(NCc2cccc3oc(C)nc23)c2c(n1)c(C)nn2C(C)C [Example 11a, 5-(2-ethoxy-3-pyridyl)-1-isopropyl-3-methyl-N-[(2-methyl-1,3-benzoxazol-4-yl)methyl]pyrazolo[4,3-b]pyridin-7-amine] | 26 nM | 4 nM | 18 nM
20 | CCOc1nnccc1-c1cc(NCc2cnn(C)c2)c2c(n1)c(C)nn2C(C)C [Example 3b, 5-(3-ethoxypyridazin-4-yl)-1-isopropyl-3-methyl-N-[(1-methylpyrazol-4-yl)methyl]pyrazolo[4,3-b]pyridin-7-amine] | 27 nM | 1.1 nM | 6.1 nM
21 | CCCOc1cnccc1-c1cc(NCc2cnn(C)c2)c2c(n1)c(C)nn2C(C)C [Example 31b, 1-isopropyl-3-methyl-N-[(1-methylpyrazol-4-yl)methyl]-5-(3-propoxy-4-pyridyl)pyrazolo[4,3-b]pyridin-7-amine] | 18 nM | 0.38 nM | 4.6 nM
22 | CCOc1nnccc1-c1cc(NCc2cccc3ocnc23)c2c(n1)c(C)nn2C(C)C [Example 13a, N-(1,3-benzoxazol-4-ylmethyl)-5-(3-ethoxypyridazin-4-yl)-1-isopropyl-3-methyl-pyrazolo[4,3-b]pyridin-7-amine] | 93 nM | 1.7 nM | 39 nM
23 | CCOc1nnccc1-c1cc(NCc2cccnc2F)c2c(n1)c(C)nn2C(C)C [Example 16b, 5-(3-ethoxypyridazin-4-yl)-N-[(2-fluoro-3-pyridyl)methyl]-1-isopropyl-3-methyl-pyrazolo[4,3-b]pyridin-7-amine] | 50 nM | 3.4 nM | 18 nM
24 | COc1nnccc1-c1cc(NCc2cnn(C)c2)c2c(n1)c(C)nn2C(C)C [Example 2b, 1-isopropyl-5-(3-methoxypyridazin-4-yl)-3-methyl-N-[(1-methylpyrazol-4-yl)methyl]pyrazolo[4,3-b]pyridin-7-amine] | 49 nM | 8.1 nM | 45 nM
25 | CCOc1ncccc1-c1cc(NCc2cccc3ncoc23)c2c(n1)c(C)nn2C(C)C [Example 9a, N-(1,3-benzoxazol-7-ylmethyl)-5-(2-ethoxy-3-pyridyl)-1-isopropyl-3-methyl-pyrazolo[4,3-b]pyridin-7-amine] | 82 nM | 5.3 nM | 45 nM
26 | CCOc1cnccc1-c1cc(NCc2ccccn2)c2c(n1)c(C)nn2C(C)C [Example 15b, 5-(3-ethoxy-4-pyridyl)-1-isopropyl-3-methyl-N-(2-pyridylmethyl)pyrazolo[4,3-b]pyridin-7-amine] | 55 nM | 1.4 nM | 17 nM
27 | CCOc1cnccc1-c1cc(NCc2ccn(C)n2)c2c(n1)c(C)nn2C(C)C [Example 27b, 5-(3-ethoxy-4-pyridyl)-1-isopropyl-3-methyl-N-[(1-methylpyrazol-3-yl)methyl]pyrazolo[4,3-b]pyridin-7-amine] | 42 nM | 1.6 nM | 17 nM
28 | CCCOc1nnccc1-c1cc(NCc2cnn(C)c2)c2c(n1)c(C)nn2C(C)C [Example 4b, 1-isopropyl-3-methyl-N-[(1-methylpyrazol-4-yl)methyl]-5-(3-propoxypyridazin-4-yl)pyrazolo[4,3-b]pyridin-7-amine] | 18 nM | 0.35 nM | 3.2 nM
29 | CCOc1cnccc1-c1cc(NCc2cc[nH]n2)c2c(n1)c(C)nn2C(C)C [Example 13b, 5-(3-ethoxy-4-pyridyl)-1-isopropyl-3-methyl-N-(1H-pyrazol-3-ylmethyl)pyrazolo[4,3-b]pyridin-7-amine] | 56 nM | 2.5 nM | 24 nM
